The values below come from PubChem BioAssay (NCI).

Holding throughout (test): DTP human tumour cell line panel, 48 h
In assay [1] the test system is CAKI-1 renal.
Assay [2] relates to OVCAR-8 ovarian.
Assay [3] has as its system UACC-257 melanoma.
For assay [4], the system named is EKVX NSCLC.
In assay [5] the test system is HCT-15 colon.
Assay [6] has as its system K-562 leukemia.
Assay [7] deals with LOX IMVI melanoma.
Assay [8] concerns MDA-N.
The test system of assay [9] is NCI-H522 lung.
Assay [10] has as its system CCRF-CEM leukemia.

Each structure is given as a SMILES string. Values joined by “and” are separate entries in the source; they are usually repeats but may differ in a detail not shown here. Equal entries are not always repeated.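 Values below derive from 48-hour exposures of cells grown in 96-well plates, with endpoints linearly interpolated between the two concentrations bracketing the appropriate inhibition level. At the GI50, growth is halved. At the TGI there is no net growth.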 A value given as a limit tells only on which side of the number the result lay.

For `COc1ccc(/[N+]([O-])=C/c2ccccc2OC(=S)S)cc1`, the TGI in assay [1] is greater than 100 µM; in [2], 45 µM; in assay [3], 97.1 µM; in assay [4], greater than 100 µM; in assay [5], greater than 100 µM; in [6], greater than 100 µM. The values for the TGI in assay [7], in [8] and in [9] were 52.7 µM, 63.4 µM and 74 µM, respectively.
For `CC(C)[C@H](NC(=O)OCc1ccccc1)C(=O)N[C@H](/C=C/C(=O)OC(C)(C)C)CO`, the TGI in assay [1], in [10], in assay [2], in [3], in assay [4] and in assay [5] was greater than 100 µM each time. Also, the total growth inhibition concentration (TGI) in [7], in assay [8] and in [9] was greater than 100 µM in each case.
For `CSC(=NCCCN=C(NS(=O)(=O)c1ccc(Cl)cc1)SC)NS(=O)(=O)c1ccc(Cl)cc1`, the TGI in assay [1] is greater than 100 µM; in [10] it was greater than 100 µM; in assay [2], greater than 100 µM; in assay [3], greater than 100 µM; in assay [4], 53.1 µM; in assay [5], greater than 100 µM. Also, the TGI in [6] was greater than 100 µM; in [7], 70.6 µM; in assay [8], 61.4 µM.
For `CCOC(=O)N/N=C(/N)Cc1ccc(Cl)cc1`, the TGI in assay [10], in [2], in assay [3], in assay [4], in assay [5] and in assay [6] was greater than 100 µM in each case. Moreover, the TGI in assay [7], in assay [8] and in assay [9] was greater than 100 µM in each case.
On to `CCOC(=O)c1sc2nc(SC)nc3c2c1NCN3c1ccccc1Cl`, for which the TGI in [1], in assay [10], in [2], in assay [3], in [5] and in assay [6] was greater than 100 µM in each case. Moreover, the TGI is greater than 100 µM in assay [7], greater than 100 µM in assay [8] and 52.7 µM in assay [9].
For the compound `Nc1nc2c(ccc3ccccc32)[nH]1`, the TGI in assay [1], in assay [10], in [2], in assay [4], in assay [5] and in [6] was greater than 10 µM each time. In addition, the TGI in assay [7], in assay [8] and in assay [9] was greater than 10 µM each time.
For the compound `Nc1c(/C=C/c2cc3cc(C4=NCCN4)ccc3o2)[nH]c2cc(C3=NCCN3)ccc12`, the TGI in [1], in [2], in [3], in [4], in assay [5] and in assay [6] was greater than 100 µM throughout. The concentration for total growth inhibition (TGI) in assay [7], in assay [8] and in assay [9] was greater than 100 µM in each case.
For `COc1ccc2c(C=O)c3n(c(=O)c2c1OC)CCc1cc2c(cc1-3)OCO2`, the TGI in assay [1], in assay [10], in [2], in assay [3], in assay [4] and in assay [5] was greater than 100 µM each time. In addition, the TGI in assay [8] and in assay [9] was greater than 100 µM each time.
Regarding `CCCCSC1=N/C(=C\c2ccccc2O)C(Cl)=N1`, the TGI in assay [1], in assay [2], in [3], in assay [4], in assay [5] and in assay [7] was greater than 100 µM each time. Further, the TGI in [8] and in assay [9] was greater than 100 µM throughout.
Consider `CCc1nc2cc(F)ccc2[nH]c1=O`, for which the TGI in assay [1], in assay [10], in [2], in assay [3], in assay [4] and in assay [5] was greater than 100 µM throughout. The total growth inhibition concentration (TGI) in [6], in assay [7] and in assay [8] was greater than 100 µM in each case.
With `COC1=C(C)C(=O)C2=C(C1=O)C1C3CC4=C(C(=O)C(OC)=C(C)C4=O)C(CNC(=O)C(C)=O)N3C(C#N)C(C2)N1C` (stereo unspecified), the GI50 in assay [1] was 1.63 pM; in assay [3], 5.76 pM; in assay [7] it was 14.7 pM; in assay [8] it was 0.00351 µM. For the same compound, the TGI in assay [1] was 0.126 µM; in [7], 8.74e-05 µM and < 0.0251 µM and < 0.0105 µM; in assay [8], 0.026 µM.
Regarding `N=c1sc(N2CCOCC2)nn1CC(=O)c1ccccc1`, the TGI in assay [1], in assay [10], in [2], in assay [3], in [4] and in [5] was greater than 100 µM throughout. In addition, the TGI in [6], in [8] and in assay [9] was greater than 100 µM in each case.
Regarding `CCCSC1=N/C(=C\c2ccco2)C(=O)N1`, the TGI in [1], in assay [2], in [3], in assay [4], in assay [5] and in [7] was greater than 100 µM throughout. Moreover, the TGI in assay [8] and in [9] was greater than 100 µM in each case.
With `CN(C)c1ccc(/C=C2\CCCCCC2=O)cc1`, the TGI in assay [1], in assay [10], in assay [2], in assay [3], in [4] and in assay [6] was greater than 100 µM each time. The TGI in assay [8] is greater than 100 µM.
As for `Cn1c(=O)c2c(n(C)c1=O)n1c(=O)c3ccccc3nc1n2C`, the TGI in assay [1], in assay [10], in assay [2], in assay [3], in assay [4] and in assay [5] was greater than 100 µM each time. Also, the TGI in assay [6], in assay [7] and in [9] was greater than 100 µM in each case.
Turning to `FC(F)(Sc1nc2ccccc2[nH]1)c1nc2ccccc2o1`, the total growth inhibition concentration (TGI) in [1], in assay [10], in assay [2], in [3], in assay [5] and in assay [6] was greater than 100 µM in each case. The TGI in assay [8] was greater than 100 µM; in [9], 31.8 µM.

For orientation: TGI means the concentration at which net growth stops. Low values mean greater sensitivity of the cells, high ones lower sensitivity of the cells. The term GI50 denotes the concentration giving 50% growth inhibition.
